Data: patent publication US20120028995A1, “NOVEL COMPOUNDS FOR MEDICAL USE AS PEPTIDASE EFFECTORS” (IMTM GMBH, priority 2010, published 2012)
Read-outs that look alike come from different tables or passages of the source.

How the values were obtained:
[1] = target: T1, purified, recombinant human DPIV (Homo sapiens, UniProt P27487); experiment: Inhibition of enzymatic activity of DPIV (fluorogenic substrate hydrolysis); type: biochemical; conditions: highest test item concentration 25 μM; for IC50: read-out: meas. IC50 (DPIV)
T1 construct: made in house; host or cells: Sf9 insect cells
Description: (§1) The inhibition of the enzymatic activity of DPIV and related enzymes was measured by using purified, recombinant human DPIV (purified from transfected Sf9 cells, final enzyme concentration approx. 1 nM) as well as purified, recombinant DP8 and DP9 (purchased from Biomol). The assay was performed in 0.05M TRIS/HCl puffer pH 7.5, supplemented with 0.05% Triton (v/v), 0.05% BSA (w/v), 2 mM MgCl2.
(§2) The enzymatic activity of DPIV was assessed by the hydrolysis of the fluorogenic substrates H-Gly-Pro-4-amino-7-methyl coumarine (abbreviation of fluorogenic group AMC; purchased from Bachem) or (Ala-Pro)2-Rhodamine 110 (abbreviation R110). The final substrate concentrations were 50 μM or 1 μM, respectively.
(§3) The assay was performed in white microtitre plates for fluorescence measurements. The test items, substrate and enzyme were diluted in assay buffer. The highest test item concentration used was 25 μM. For the calculation of IC50 values, at least 16 log 2-dilutions of each test item were analyzed. As controls, the DPIV activity in the absence of test items as well as the spontaneous hydrolysis of the substrate was determined.
(§4) The release of the fluorescent hydrolysis product AMC was measured at an excitation wavelength of 380 nm and an emission wavelength of 460 nm by using a microtitre fluorescence reader immediately after substrate addition as well as after 30, 60 and 120 min. The hydrolysis of the substrate (Ala-Pro)2-Rhodamine 110 was determined at an exitation wavelength of 488 nm and emission wavelength of 530 nm.

NHEK cells = experiment: Inhibition of DNA synthesis and proliferation of normal human epidermal keratinocytes (NHEK); type: cell-based; conditions: EGF-stimulated NHEK, BrdU incorporation, read-out: Supp. DNA Synt. NHEK IC50
Description: NHEK cells (primary cells from person) were purchased from PromoCell. For these assay the adherent cells were cultured in serum-free Keratinocyte Growth medium 2 supplemented with epidermal growth factor (EGF) and bovine pituitary extract for 48 hours in flat-bottom microtiter plates. EGF stimulates the DNA synthesis and proliferation of these cells. Test items were added in concentrations from 0.1 up to 100 μM.
The DNA synthesis was assessed by incorporation of bromdesoxyuridine (BrdU) and subsequent detection of BrdU by ELISA technique. Based on these raw data the relative proliferation response in relation to cells cultured in the absence of test compound (100% control) was calculated. IC50 values of proliferation suppression were assessed by computer-assisted graphical evaluation.

T lymphocytes (T cells) = experiment: Suppression of DNA synthesis of PHA-stimulated T lymphocytes; type: cell-based; conditions: tritium thymidine incorporation, read-out: Supp. DNA Synt. T-cell IC50
Description: Peripheral blood mononuclear cells (PBMC) from healthy human volunteers were freshly isolated by density gradient centrifugation. T lymphocytes (T cells) were isolated from PBMC fractions via nylon wool adherence. Both cell populations were cultured in serum free lymphocyte medium (AIMV medium, Invitrogen) and stimulated by addition of 1 μg/ml Phytohemagglutinine for 48 hours in 96 well flat-bottom microtiter plates. Test compounds were added at concentration ranges from 0.1 up to 250 μM over the total assay period.
DNA synthesis of proliferating PBMC was assessed by incorporation of nucleotide analogue bromdesoxyuridine (BrdU) and subsequent detection of BrdU by ELISA technique (Cell Proliferation Biotrak™ ELISA system, GE Health Care) according to the protocol of the manufacturer. DNA synthesis of proliferating T cells was determined by incorporation of radio labelled tritium thymidine and subsequent radio detection.
Data output was based on raw data and calculation of relative proliferation response in relation to PHA-activated T cells in the absence of test compound (100% control). The IC50 value of proliferation suppression was assessed by graphical evaluation.

[2] = target: T2, cytosolic aminopeptidase (cAAP) purified from Jurkat cells (Homo sapiens, UniProt P55786); experiment: Inhibition of enzymatic activity of cytosolic aminopeptidase (cAAP); type: biochemical; conditions: highest test item concentration 25 μM; for IC50: read-out: meas. IC50 (cAAP)
T2 construct: The cytosolic aminopeptidase (cAAP) was purified from Jurkat cells; endogenous in cells; host or cells: Jurkat cells (enzyme purified from them)

[3] = system: purified, recombinant DP8 and DP9; experiment: Inhibition of enzymatic activity of DP8/9; type: biochemical; conditions: highest test item concentration 25 μM; for IC50: read-out: meas. IC50 (DP8/9)
Description: as §1, §2, §3, §4

[4] = target: T3, aminopeptidase N (APN), purified recombinant human enzyme (Homo sapiens, UniProt P15144); experiment: Inhibition of enzymatic activity of aminopeptidase N (fluorogenic substrate hydrolysis); type: biochemical; conditions: highest test item concentration 25 μM; for IC50: read-out: meas. IC50 (APN)
T3 construct: made in house; host or cells: ECV cells (transfected)
Description: The inhibition of the enzymatic activity of aminopeptidase N (APN) was measured by using purified, recombinant human enzyme (purified from transfected ECV cells, final enzyme concentration approx. 1 nM). […] The assay was performed in 0.05M TRIS/HCl puffer pH 7.5, supplemented with 0.05% Triton (v/v), 0.05% BSA (w/v), 2 mM MgCl2.
The aminopeptidase acitivities wer assessed by the hydrolysis of the fluorogenic substrates H-Ala-4-amino-7-methyl coumarine (abbreviation of fluorogenic group AMC; purchased from Bachem) or (Ala-)2-Rhodamine 110 (abbreviation R110). The final substrate concentrations were again 50 and 1 μM, respectively.
as §3
The release of the fluorescent hydrolysis products AMC and R110 was measured as described above for DPIV substrates.

SZ95 cells = experiment: Inhibition of DNA synthesis and proliferation of immortalized human sebocytes SZ95; type: cell-based; conditions: EGF-stimulated SZ95 sebocytes, tritium thymidine incorporation, read-out: Supp. DNA Synt. SZ95 IC50
Description: The immortalized human sebocyte line SZ95 was provided by Prof. C Zouboulis [C C Zouboulis, H Seltmann, H Neitzel, C E Orfanos, Establishment and characterization of an immortalized human sebaceous gland cell line (SZ95). J. Invest. Dermatol. 113(6):1011-1020 (1999), the entire disclosure of which is incorporated by reference herein]. These adherent growing cells were cultured in serum-free Sebomed Complete (Biochrom). Recombinant EGF was added in order to stimulate DNA synthesis and proliferation of the SZ95 cells. Test items were added in concentrations from 0.1 up to 100 μM.
The DNA synthesis of proliferating cells was detected by incorporation of radiolabelled tritium thymidine (3HT) and counting at a beta counter. Based on these raw data the relative proliferation response in relation to cells cultured in the absence of test compound (100% control) was calculated. IC50 values of proliferation suppression were assessed by computer-assisted graphical evaluation.

[5] = PHA-stimulated human T cells, 48 hours

T1 sequence (P27487 whole entry): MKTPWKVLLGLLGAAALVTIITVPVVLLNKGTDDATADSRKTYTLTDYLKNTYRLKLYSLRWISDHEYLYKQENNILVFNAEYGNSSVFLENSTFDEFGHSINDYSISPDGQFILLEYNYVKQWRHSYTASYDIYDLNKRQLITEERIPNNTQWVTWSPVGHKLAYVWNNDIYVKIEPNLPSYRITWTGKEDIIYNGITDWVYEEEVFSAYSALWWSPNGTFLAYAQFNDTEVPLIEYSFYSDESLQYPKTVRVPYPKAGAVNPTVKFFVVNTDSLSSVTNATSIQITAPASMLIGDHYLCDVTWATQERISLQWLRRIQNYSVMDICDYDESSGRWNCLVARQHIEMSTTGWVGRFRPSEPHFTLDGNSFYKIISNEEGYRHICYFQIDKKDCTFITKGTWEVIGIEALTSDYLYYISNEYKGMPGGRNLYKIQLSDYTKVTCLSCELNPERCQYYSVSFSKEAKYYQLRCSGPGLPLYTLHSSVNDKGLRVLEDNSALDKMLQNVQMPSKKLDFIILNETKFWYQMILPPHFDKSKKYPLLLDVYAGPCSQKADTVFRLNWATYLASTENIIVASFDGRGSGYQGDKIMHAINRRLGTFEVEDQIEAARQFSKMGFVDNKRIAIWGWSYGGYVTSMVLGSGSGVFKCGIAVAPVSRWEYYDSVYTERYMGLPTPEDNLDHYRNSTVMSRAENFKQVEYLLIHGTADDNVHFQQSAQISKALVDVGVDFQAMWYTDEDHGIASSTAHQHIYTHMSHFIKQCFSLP
T2 sequence (P55786 whole entry): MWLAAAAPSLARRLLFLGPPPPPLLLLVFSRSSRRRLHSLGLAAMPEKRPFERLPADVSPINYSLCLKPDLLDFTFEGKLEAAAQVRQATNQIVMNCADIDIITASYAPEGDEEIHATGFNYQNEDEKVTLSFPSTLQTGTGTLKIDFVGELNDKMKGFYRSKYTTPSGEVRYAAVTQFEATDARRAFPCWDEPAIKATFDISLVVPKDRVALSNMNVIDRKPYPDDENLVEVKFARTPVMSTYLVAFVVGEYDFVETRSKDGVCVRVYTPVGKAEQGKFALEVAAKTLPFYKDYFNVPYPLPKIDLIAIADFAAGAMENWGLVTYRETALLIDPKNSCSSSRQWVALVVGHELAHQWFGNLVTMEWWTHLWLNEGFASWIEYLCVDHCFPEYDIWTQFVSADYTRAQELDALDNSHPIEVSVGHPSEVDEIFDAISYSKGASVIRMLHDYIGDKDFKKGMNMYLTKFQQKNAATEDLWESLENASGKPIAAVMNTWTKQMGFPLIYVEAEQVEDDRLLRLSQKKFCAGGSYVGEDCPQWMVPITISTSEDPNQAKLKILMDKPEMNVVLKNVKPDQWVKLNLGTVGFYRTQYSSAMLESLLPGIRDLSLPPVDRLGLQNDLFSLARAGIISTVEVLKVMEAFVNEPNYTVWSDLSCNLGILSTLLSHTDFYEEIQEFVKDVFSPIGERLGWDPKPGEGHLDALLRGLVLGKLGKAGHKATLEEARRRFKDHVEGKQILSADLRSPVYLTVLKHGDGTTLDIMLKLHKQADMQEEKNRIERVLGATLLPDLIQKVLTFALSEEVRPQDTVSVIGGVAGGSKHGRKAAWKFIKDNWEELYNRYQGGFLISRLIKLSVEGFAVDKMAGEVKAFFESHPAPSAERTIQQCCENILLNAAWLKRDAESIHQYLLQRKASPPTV
T3 sequence (P15144 whole entry): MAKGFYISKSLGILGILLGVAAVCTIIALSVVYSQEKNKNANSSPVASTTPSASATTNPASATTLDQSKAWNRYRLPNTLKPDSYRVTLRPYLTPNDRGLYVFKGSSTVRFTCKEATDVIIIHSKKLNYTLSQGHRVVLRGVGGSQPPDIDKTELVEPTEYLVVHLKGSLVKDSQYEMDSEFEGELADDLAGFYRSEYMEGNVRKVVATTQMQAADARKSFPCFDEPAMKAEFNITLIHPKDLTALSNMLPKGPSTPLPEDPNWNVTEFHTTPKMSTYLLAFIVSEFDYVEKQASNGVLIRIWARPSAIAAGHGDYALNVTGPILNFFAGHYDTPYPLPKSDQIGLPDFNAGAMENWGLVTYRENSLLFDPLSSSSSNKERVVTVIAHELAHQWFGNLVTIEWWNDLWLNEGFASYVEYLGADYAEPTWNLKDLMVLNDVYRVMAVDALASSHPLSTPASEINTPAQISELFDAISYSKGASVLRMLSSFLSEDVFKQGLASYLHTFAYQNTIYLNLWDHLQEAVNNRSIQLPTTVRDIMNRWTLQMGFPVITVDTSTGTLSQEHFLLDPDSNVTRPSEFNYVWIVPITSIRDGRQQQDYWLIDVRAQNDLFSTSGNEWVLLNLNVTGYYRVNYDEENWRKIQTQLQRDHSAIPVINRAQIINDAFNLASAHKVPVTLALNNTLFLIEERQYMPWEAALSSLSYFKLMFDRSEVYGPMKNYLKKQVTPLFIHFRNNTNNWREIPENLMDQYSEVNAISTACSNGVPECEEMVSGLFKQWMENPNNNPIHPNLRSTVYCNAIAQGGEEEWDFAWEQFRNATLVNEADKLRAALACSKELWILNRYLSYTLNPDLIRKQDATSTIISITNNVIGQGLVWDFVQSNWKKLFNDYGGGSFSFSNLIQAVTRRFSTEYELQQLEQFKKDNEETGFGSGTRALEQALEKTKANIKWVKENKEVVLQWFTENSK

SMILES	meas. IC50 (DPIV) [1]	IC50 (NHEK cells; Homo sapiens, NHEK, 48 h)	IC50 (T lymphocytes (T cells); Homo sapiens, T-cell, 48 h)	IC50 [2]	meas. IC50 (DP8/9) [3]	IC50 [4]	IC50 (SZ95 cells; Homo sapiens)	meas. IC50 (cAAP) [2]	meas. IC50 (APN) [4]	IC50 (NHEK cells; 48 hours)	IC50 (T lymphocytes (T cells); [5])	IC50 (SZ95 cells)	IC50 (NHEK cells; Homo sapiens, 48 hours)	IC50 (T lymphocytes (T cells); T-cell, PHA-stimulated human T cells, 48 hours)	IC50 [1]	IC50 [3]
CCOC(=O)NC(CC(=O)NCC(C)(C)CNC(=O)C(O)C(COCc1ccccc1)NC(=O)OCC)Cc1cc(F)ccc1F (centres unmarked) [Compound C19.009]	no in- hibition	100 µM	33.9 µM	3.4 µM	no in- hibition	5.9 µM	59.1 µM									
CC(C)[C@@H]1CC[C@@H](C)CC1OC(=O)CC(Cc1cc(F)ccc1F)NC(=O)OC(C)(C)C (some centres unmarked) [Compound C-122]	no in- hibition	69.4 µM	5.83 µM		no in- hibition		65.2 µM	no in- hibition	no in- hibition							
CC(C)(CNC(=O)CC(Cc1cc(F)ccc1F)NC(=O)OC(C)(C)C)CNC(=O)C(OC(=O)C(C)(C)C)C(COCc1ccccc1)NC(=O)OC(C)(C)C (centres unmarked) [Compound C19.019]	no in- hibition	≥ 131 µM	122 µM		no in- hibition		70.6 µM	no in- hibition	no in- hibition							
CC(C)(CNC(=O)CC(Cc1cc(F)ccc1F)NC(=O)OCc1ccccc1)CNC(=O)C(O)C(COCc1ccccc1)NC(=O)OC(C)(C)C (centres unmarked) [Compound C19.027]	No in- hibition	42.1 µM	5.2 µM		no in- hibition		8.53 µM	no in- hibition	no in- hibition							
CC(C)(CNC(=O)CC(Cc1cc(F)ccc1F)NC(=O)OCc1ccccc1)CNC(=O)C(O)C(COCc1ccccc1)NC(=O)OCc1ccccc1 (centres unmarked) [Compound C19.008]	no in- hibition	6.77 µM	5.7 µM	5.8 µM	no in- hibition		8.6 µM		no in- hibition							
CC(C)(CNC(=O)CC(Cc1cc(F)ccc1F)NC(=O)OC(C)(C)C)CNC(=O)C(O)C(COCc1ccccc1)NC(=O)OC(C)(C)C (centres unmarked) [Compound C19.024]	No in- hibition				no in- hibition			no in- hibition	no in- hibition	21.1 µM	11.4 µM	13.3 µM				
CC(C)(CNC(=O)CC(Cc1cc(F)ccc1F)Nc1ccc([N+](=O)[O-])c2nonc12)CNC(=O)C(O)C(COCc1ccccc1)Nc1ccc([N+](=O)[O-])c2nonc12 (centres unmarked) [Compound C19.030]	No in- hibition				no in- hibition		29.7 µM	no in- hibition	no in- hibition				7.55 µM	18.2 µM		
CCCC(=O)NC(CC(=O)NCC(C)(C)CNC(=O)C(O)C(COCc1ccccc1)NC(=O)CCC)Cc1cc(F)ccc1F (centres unmarked) [Compound C19.017]	no in- hibition	64.6 µM	30.5 µM		no in- hibition		≥ 173 µM	no in- hibition	no in- hibition							
CC(C)(CNC(=O)CC(Cc1cc(F)ccc1F)NC(=O)C(C)(C)C)CNC(=O)C(O)C(COCc1ccccc1)NC(=O)C(C)(C)C (centres unmarked) [Compound C19.016]	no in- hibition	37.9 µM	15.7 µM		no in- hibition		49.2 µM	no in- hibition	no in- hibition							
NC(CCCCNC(=O)C(O)C(N)Cc1ccccc1)C(=O)N1CCSC1 (centres unmarked) [Compound C21.001]		77 µM	90.1 µM	0.066 µM		0.178 µM	65.5 µM								0.11 µM	0.02 µM
NC(CNC(=O)c1cccc(NC(=O)C(O)C(N)COCc2ccccc2)c1)Cc1cc(F)ccc1F (centres unmarked) [Compound C19.031]		20.1 µM	58.2 µM	0.18 µM		0.012 µM	≥ 119 µM								2.3 µM	13.3 µM
CC(C)(CNC(=O)CC(Cc1cc(F)ccc1F)NC(=O)OC(C)(C)C)CNC(=O)C(O)C(COCc1ccccc1)NC(=O)OC(C)(C)C (centres unmarked) [Compound C19.004]	no in- hibition				no in- hibition			no in- hibition	no in- hibition	19.8 µM	9.7 µM	18.3 µM				
CCCCCCCC(=O)NC(CC(=O)NCC(C)(C)CNC(=O)C(O)C(COCc1ccccc1)NC(=O)CCCCCCC)Cc1cc(F)ccc1F (centres unmarked) [Compound C19.010]	no in- hibition	48.1 µM	7.6 µM	3.5 µM	no in- hibition		12.2 µM		no in- hibition							
CC(C)(CNC(=O)CC(Cc1cc(F)ccc1F)NC(=O)OCc1ccccc1)CNC(=O)C(O)C(N)COCc1ccccc1 (centres unmarked) [Compound C19.026]	No in- hibition	8.9 µM	12.2 µM	0.5 µM		1 µM	22.7 µM									7.3 µM
